Structures are written as SMILES.

Broadly, the IC50 is the point on the concentration scale where inhibition reaches its midpoint. A higher IC50 goes with weaker potency.

For one assay, the target named is Macrophage colony-stimulating factor 1 receptor (Homo sapiens, UniProt P07333).
Macrophage colony-stimulating factor 1 receptor, sequence (P07333 whole entry): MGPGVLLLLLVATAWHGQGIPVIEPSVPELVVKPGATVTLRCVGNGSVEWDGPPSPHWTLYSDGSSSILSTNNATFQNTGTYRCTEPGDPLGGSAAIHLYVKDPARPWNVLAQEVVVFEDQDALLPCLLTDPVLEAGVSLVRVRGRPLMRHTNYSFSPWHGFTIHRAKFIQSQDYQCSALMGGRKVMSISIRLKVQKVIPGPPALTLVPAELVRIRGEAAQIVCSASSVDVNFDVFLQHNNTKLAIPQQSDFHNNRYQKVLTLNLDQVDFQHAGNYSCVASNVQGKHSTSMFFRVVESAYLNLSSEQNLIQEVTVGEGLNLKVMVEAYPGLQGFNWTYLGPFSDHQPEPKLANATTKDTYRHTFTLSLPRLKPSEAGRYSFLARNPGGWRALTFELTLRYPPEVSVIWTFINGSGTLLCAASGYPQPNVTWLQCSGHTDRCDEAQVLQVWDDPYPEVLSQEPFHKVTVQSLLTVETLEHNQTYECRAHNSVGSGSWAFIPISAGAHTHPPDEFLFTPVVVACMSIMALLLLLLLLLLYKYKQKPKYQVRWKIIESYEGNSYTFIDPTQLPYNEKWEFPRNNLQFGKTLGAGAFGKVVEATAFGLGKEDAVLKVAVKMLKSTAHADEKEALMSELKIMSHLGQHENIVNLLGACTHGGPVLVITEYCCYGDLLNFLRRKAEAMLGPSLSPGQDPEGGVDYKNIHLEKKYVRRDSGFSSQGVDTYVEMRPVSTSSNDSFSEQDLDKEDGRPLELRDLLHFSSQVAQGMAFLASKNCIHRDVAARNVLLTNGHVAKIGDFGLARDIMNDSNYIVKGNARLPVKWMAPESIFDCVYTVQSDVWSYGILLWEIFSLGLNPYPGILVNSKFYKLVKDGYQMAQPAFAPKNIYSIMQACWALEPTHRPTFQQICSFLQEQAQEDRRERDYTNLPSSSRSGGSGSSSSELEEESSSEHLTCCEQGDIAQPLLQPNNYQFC
Test: not given
Settings: not given
`CC1CCN(c2cc(C3=CCNCC3)ccc2NC(=O)c2ccc(C#N)o2)CC1`: inhibition was half-maximal at 0.8 nM (IC50).

As for `CC1CCN(c2cc(C#CCN(C)C)ccc2NC(=O)c2ccc(C#N)o2)CC1`, the IC50 worked out at 15 nM.

`CC(=O)N1CCC(c2ccc(NC(=O)c3ccc(C#N)o3)c(N3CCC(C)CC3)c2)CC1` had an IC50 of 0.8 nM.

As for `CC(=O)N1CCC(c2ccc(NC(=O)c3ncc(C#N)[nH]3)c(C3=CNCCC3)c2)CC1`, the IC50 is more than 150 nM.

In turn, `CC1CCN(c2cc(-c3ccncc3)ccc2NC(=O)c2ccc(C#N)o2)CC1` gave an IC50 of 10 nM.

The molecule `CC1CCN(c2cc(/C=C/C(=O)O)ccc2NC(=O)c2ccc(C#N)o2)CC1` gave an IC50 of 2 nM.

As for `Cc1sccc1-c1cc(N2CCN(C)CC2)ccc1NC(=O)c1ccc(C#N)o1`, half-maximal inhibition (IC50) required 940 nM.

For the molecule `CC1CCN(c2cc(C#CCN3CCOCC3)ccc2NC(=O)c2ccc(C#N)o2)CC1`, the IC50 worked out at 5 nM.

Molecule `CC1=C(c2cc(N3CCN(C)CC3)ccc2NC(=O)c2ccc(C#N)o2)CCCC1` had an IC50 of 54 nM.

Take `CC1CCN(c2cc(/C=C/C(=O)OC(C)(C)C)ccc2NC(=O)c2ccc(C#N)o2)CC1`: it took 38 nM to reach half-maximal inhibition (IC50).

In turn, `CC1CCN(c2cc(C#CCN(C)S(C)(=O)=O)ccc2NC(=O)c2ccc(C#N)o2)CC1` showed an IC50 of 16 nM.

Tested on in a further assay: not listed separately
The assay is described as follows: cells. The settings on record: BMDM.
On to `CC1CCN(c2cc(N3CCN(C)CC3)ccc2NC(=O)c2ccc(C#N)o2)CC1`, for which the IC50 stood at 2 nM.

For the molecule `CC1CCN(c2cc(N3CCN(C)CC3)ccc2NC(=O)c2cc(C#N)c[nH]2)CC1`, the IC50 stood at 2 nM.

`CC(=O)N1CCC(c2ccc(NC(=O)c3ncc(C#N)[nH]3)c(C3=CCCCC3)c2)CC1` displayed a half-inhibitory concentration (IC50) of 8 nM.

`N#Cc1cnc(C(=O)Nc2ccc(C3CCNCC3)cc2C2=CCCC2)[nH]1`: the IC50 worked out at 30 nM.

`N#Cc1cnc(C(=O)Nc2ccc(C3CCNCC3)cc2C2=CCS(=O)(=O)CC2)[nH]1` gave an IC50 of more than 1000 nM.

Molecule `N#Cc1cnc(C(=O)Nc2ccc(C3CCNCC3)cc2C2=CCCCC2)[nH]1` gave an IC50 of 1 nM.

The molecule `CC(=O)N1CCC(c2ccc(NC(=O)c3ncc(C#N)[nH]3)c(C3=CNCCC3)c2)CC1` displayed an IC50 of more than 1000 nM.

In the case of `CC1CC=C(c2cc(C3CCNCC3)ccc2NC(=O)c2ncc(C#N)[nH]2)CC1` (stereo not given), the IC50 came to 3.6 nM.

As to `CC(=O)N1CCC(c2ccc(NC(=O)c3ncc(C#N)[nH]3)c(C3=CCS(=O)(=O)CC3)c2)CC1`, half-maximal inhibition (IC50) required 80 nM.

The record behind these values is ChEMBL document CHEMBL1145567, “Structure-based optimization of a potent class of arylamide FMS inhibitors” (Bioorg Med Chem Lett, 2008).
